The values below come from patent US5258386A (priority 1991, dated 1993).

The conditions of data set [1]: elevated doses; cited from earlier work.
The conditions of data set [2]: U.S. Pat. Nos. 4,898,860 and 4,906,638; cited from earlier work.
For data set [3] the following is noted: in vivo, demethylation; dextrorphan is the major metabolite in man; cited from earlier work.
Data set [4] can be described thus: Proconvulsant activity of dextromethorphan. Particulars: doses above about 60 mg/kg, in mammals.
For data set [5] the following is noted: in vivo; cited from earlier work.
Data set [6] deals with maximal electroshock seizures (MES). As to the kind of experiment: Maximal electroshock seizure (MES) assay in rats, s.c. injection, tonic hindlimb extension (THE). Format: in vivo, Male Sprague-Dawley rats. The conditions noted are these: for % Responding (THE): s.c.; for ED50: sc, read-out: Anticonvulsant ED50. The method, then:
The anticonvulsant activity of the present compounds was assessed by the method of inducing maximal electroshock seizures (MES) in rats using the standard testing protocol conditions hereinafter described:
Animals. Male Sprague-Dawley rats weighing 200-250 g obtained from Zivic Miller Laboratories, Alison Park, Pa., were used for all experiments. Upon delivery the animals were kept in individual pens housed in a temperature controlled laboratory. A standard 12-hour light-dark cycle was maintained. The animals were given food and water ad libitum.
Maximal electroshock seizure (MES) assay. Supramaximal (tonic hindlimb extension) seizures were induced in test rats by means of an electric shock apparatus. A current of 60 Hz and 50 mA was delivered transauricularly through miniature alligator clips attached to the pinna of each ear for 2.0 seconds. […] In general, MES causes a generalized convulsion characterized by an initial tonic forelimb extension (TFE) progressing immediately to tonic hindlimb extension (THE) followed by clonic jerking. The presence or absence of THE was recorded for each MES convulsion.
Experimental protocol. Two groups of animals with n=10 for each group were tested under the conditions described above. Compounds were administered to each test animal by a single subcutaneous injection. There were no signs of overt sedation, ataxia or motor impairment at any time during the MES assay after drug injection.
(In general: Protection in the maximal electroshock model is a classic sign of anticonvulsant action.)

For data set [7] the following is noted: U.S. Pat. No. 4,552,962; cited from earlier work.
For data set [8] the following is noted: in vivo; cited from earlier work. The source holds these as a separate data set.

Each structure is given as a SMILES string.

The term ED50 denotes the dose that gives a 50% effect, or the effect in half of the subjects. In the case of `COc1ccc2c(c1)[C@@]13CCCC[C@H]1[C@@H](C2)N(C)CC3` [Compound 1, (+)-3-methoxy-N-methylmorphinan], the proconvulsant result in data set [1] is on record as “becomes proconvulsant”. Further, the “potentiating effect on antiepileptic or antiseizure compounds” value in data set [2] is reported as “potentiating effect”. In data set [3], the metabolism to dextrorphan result is “metabolizes rapidly by demethylation in vivo”. In addition, the proconvulsant activity result in data set [4] is recorded as “exhibits proconvulsant activity”. Moreover, the anticonvulsant activity entry in data set [5] is reported as “not very potent as an anticonvulsant agent”. The “% Responding (THE)” value was found to be 70% in data set [6] (15 mg/kg, rat MES); 70% in data set [6] (30 mg/kg, rat MES); 30% in data set [6] (60 mg/kg, rat MES). Besides, the inhibits seizures entry in data set [6] (about 60 mg/kg) was “about 70%”. For the same compound, the ED50 in data set [6] (rat MES, single s.c. injection) amounted to 38 mg/kg. In data set [7], the antitussive activity entry is listed as “potent antitussive agent”.
Turning to `CN1CC[C@]23CCCC[C@H]2[C@H]1Cc1ccc(N)cc13.Cl.Cl` [Compound 5, (+)-3-Amino-17-methylmorphinan di-HCl], the “% Responding (THE)” value was 100% in data set [6] (12.5 mg/kg, rat MES) and 40% in data set [6] (25 mg/kg, rat MES). Besides, in data set [6] (rat MES, single s.c. injection), the ED50 is 25 mg/kg.
As to `CN(C)c1ccc2c(c1)C13CCCCC1C(C2)N(C)CC3` (single isomer, unassigned; (+)) [Compound 7, (+)-3,3-Dimethylamino-17-methylmorphinan sesquitartrate], the “% Responding (THE)” value in data set [6] (25 mg/kg, rat MES) was 65%. In addition, the ED50 in data set [6] (rat MES, single s.c. injection) was above 25 mg/kg.
Take `CN1CC[C@]23CCCC[C@H]2[C@H]1Cc1ccc(O)cc13` [Compound 2, (+)-3-hydroxy-N-methylmorphinan]: the behavioral side effects result in data set [8] is recorded as “harmful behavioral side effects”. The anticonvulsant activity result in data set [5] is “some anticonvulsant activity”. Also, the “Anticonvulsant ED50” value in data set [6] (rat MES, single s.c. injection) is listed as 5 mg/kg.
